Target: T1, Recombinant human PAD2 (residues 1-665) (Homo sapiens, UniProt Q9Y2J8)
T1 construct: Recombinant human PAD2 (residues 1-665) was expressed in baculovirus-infected Sf9 insect cells; 6His-FLAG (N); made in house; host or cells: baculovirus-infected Sf9 insect cells
Assay: PAD2 enzyme assay (FLINT NH3 release, BAEE substrate)
Format: biochemical
Settings: PAD2 enzyme assay above or similar assays; to assess selectivity for PAD4 over PAD2; read-out: mean pIC50 (converted)
Procedure: Activity of the final product was determined using a FLINT NH3 release assay.
8 μl of PAD2 enzyme diluted to an assay concentration of 30 nM in assay buffer (100 mM HEPES, 50 mM NaCl, 2 mM DTT, 7.5% glycerol and 1.5 mM CHAPS pH 8), and added to wells containing 0.1 μl of various concentrations of compound or DMSO vehicle (0.8% final) in a Greiner high volume 384 well black plate. […] The reaction was stopped after 90 mins with the addition of […] stop/detection buffer containing 50 mM EDTA, 2.6 mM phthalaldehyde and 2.6 mM DTT.

T1 sequence (Q9Y2J8 whole entry, the tested form may be a part): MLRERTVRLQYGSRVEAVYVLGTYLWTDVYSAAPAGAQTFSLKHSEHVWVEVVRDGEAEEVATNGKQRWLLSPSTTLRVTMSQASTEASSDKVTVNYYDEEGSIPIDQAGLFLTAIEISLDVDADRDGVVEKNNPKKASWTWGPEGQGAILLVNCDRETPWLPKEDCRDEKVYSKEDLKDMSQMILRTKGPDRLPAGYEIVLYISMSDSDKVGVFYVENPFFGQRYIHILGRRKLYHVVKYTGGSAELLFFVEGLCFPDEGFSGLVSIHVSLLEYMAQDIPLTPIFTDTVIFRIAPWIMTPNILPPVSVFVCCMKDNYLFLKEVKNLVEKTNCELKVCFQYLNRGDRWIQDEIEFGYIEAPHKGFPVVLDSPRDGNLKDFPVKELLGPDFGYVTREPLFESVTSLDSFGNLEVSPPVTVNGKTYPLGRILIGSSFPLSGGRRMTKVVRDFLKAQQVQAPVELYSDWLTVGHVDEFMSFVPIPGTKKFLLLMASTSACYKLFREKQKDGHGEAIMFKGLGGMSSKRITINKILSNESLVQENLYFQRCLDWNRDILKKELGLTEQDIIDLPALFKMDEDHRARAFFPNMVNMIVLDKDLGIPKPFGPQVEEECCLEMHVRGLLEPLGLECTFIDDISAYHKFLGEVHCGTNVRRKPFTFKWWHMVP

Compound	IC50
CCn1c(-c2nc3cc(C(=O)N4CC[C@H](OC)[C@@H](N)C4)ccc3n2C)cc2ccccc21 (racemic) [Example 51, (+/−)-((trans)-3-Amino-4-methoxypiperidin-1-yl)(2-(1-ethyl-1H-indol-2-yl)-1-methyl-1H-benzo[d]imidazol-5-yl)methanone]	> 79.4 µM
CCn1c(-c2nc3cc(C(=O)N4C[C@@H](N)CC[C@H]4C)ccc3n2C)cc2ccccc21 (single isomer, unassigned) [Example 54, cis-(5-Amino-2-methylpiperidin-1-yl)(2-(1-ethyl-1H-indol-2-yl)-1-methyl-1H-benzo[d]imidazol-5-yl)methanone]	> 79.4 µM
CCn1c(-c2nc3cc(C(=O)N4C[C@H](C)C[C@H](N)C4)ccc3n2C)cc2ccccc21 (single isomer, unassigned) [Example 124, cis-(3-Amino-5-methylpiperidin-1-yl)(2-(1-ethyl-1H-indol-2-yl)-1-methyl-1H-benzo[d]imidazol-5-yl)methanone]	> 79.4 µM
CC(C)n1c(-c2nc3cc(C(=O)N4CCC[C@@H](N)C4)ccc3n2C)cc2ccccc21 [Example 12, (3R)-1-({1-Methyl-2-[1-(1-methylethyl)-1H-indol-2-yl]-1H-benzimidazol-5-yl}carbonyl)-3-piperidinamine]	≥ 10 µM
Cn1c(-c2cc3ccccc3[nH]2)nc2cc(C(=O)N3CCC[C@@H](N)C3)ccc21 [Example 18, (3R)-1-{[2-(1H-Indol-2-yl)-1-methyl-1H-benzimidazol-5-yl]carbonyl}-3-piperidinamine]	≥ 10 µM
Cn1cc(Cn2c(-c3nc4cc(C(=O)N5CCC[C@@H](N)C5)ccc4n3C)cc3ccccc32)cn1 [Example 20a, (3R)-1-[(1-methyl-2-{1-[(1-methyl-1H-pyrazol-4-yl)methyl]-1H-indol-2-yl}-1H-benzimidazol-5-yl)carbonyl]-3-piperidinamine]	≥ 10 µM
CCn1c(-c2nc3cc(C(=O)N4CCC[C@@H](N)C4)cc(OC(F)(F)F)c3n2C)cc2ccccc21 [Example 34, (R)-(3-Aminopiperidin-1-yl)(2-(1-ethyl-1H-indol-2-yl)-1-methyl-7-(trifluoromethoxy)-1H-benzo[d]imidazol-5-yl)methanone]	≥ 10 µM
CCn1c(-c2nc3cc(C(=O)N4CCC[C@@H](N)C4)ccc3n2CCN)cc2ccccc21 [Example 48, (R)-(1-(2-Aminoethyl)-2-(1-ethyl-1H-indol-2-yl)-1H-benzo[d]imidazol-5-yl)(3-aminopiperidin-1-yl)methanone]	≥ 10 µM
COc1cc(C(=O)N2CC[C@@H](O)[C@@H](N)C2)cc2nc(-c3cc4ccccc4n3CC(F)(F)F)n(C)c12 [Example 58a, ((3S,4R)-3-Amino-4-hydroxypiperidin-1-yl)(7-methoxy-1-methyl-2-(1-(2,2,2-trifluoroethyl)-1H-indol-2-yl)-1H-benzo[d]imidazol-5-yl)methanone]	≥ 10 µM
COc1cc(C(=O)N2CC[C@H](O)[C@H](N)C2)cc2nc(-c3cc4ccccc4n3CC(F)(F)F)n(C)c12 [Example 59, ((3R,4S)-3-Amino-4-hydroxypiperidin-1-yl)(7-methoxy-1-methyl-2-(1-(2,2,2-trifluoroethyl)-1H-indol-2-yl)-1H-benzo[d]imidazol-5-yl)methanone]	≥ 10 µM
CCn1c(-c2nc3cc(C(=O)N4CCC[C@@H](N)C4)cc(N(C)C)c3n2C)cc2ccccc21 [Example 63, (R)-(3-Aminopiperidin-1-yl)(7-(dimethylamino)-2-(1-ethyl-1H-indol-2-yl)-1-methyl-1H-benzo[d]imidazol-5-yl)methanone]	> 79.4 µM
CCn1c(-c2nc3cc(C(=O)N4CC[C@@H](O)[C@@H](N)C4)cc(OC)c3n2C)cc2ccccc21 [Example 67, ((3S,4R)-3-Amino-4-hydroxypiperidin-1-yl)(2-(1-ethyl-1H-indol-2-yl)-7-methoxy-1-methyl-1H-benzo[d]imidazol-5-yl)methanone]	> 79.4 µM
CCn1c(-c2nc3cc(C(=O)N4CCC[C@@H](N)C4)cc(NC)c3n2C)cc2ccccc21 [Example 68, (R)-(3-Aminopiperidin-1-yl)(2-(1-ethyl-1H-indol-2-yl)-1-methyl-7-(methylamino)-1H-benzo[d]imidazol-5-yl)methanone]	> 79.4 µM
COc1cc(C(=O)N2CCC[C@@H](N)C2)cc2nc(-c3cc4ccccc4n3CC3CCOCC3)n(C)c12 [Example 70, (R)-(3-Aminopiperidin-1-yl)(7-methoxy-1-methyl-2-(1-((tetrahydro-2H-pyran-4-yl)methyl)-1H-indol-2-yl)-1H-benzo[d]imidazol-5-yl)methanone]	> 79.4 µM
COc1cc(C(=O)N2CCC[C@@H](N)C2)cc2nc(-c3cc4ccccc4n3CC#N)n(C)c12 [Example 74, (R)-2-(2-(5-(3-Aminopiperidine-1-carbonyl)-7-methoxy-1-methyl-1H-benzo[d]imidazol-2-yl)-1H-indol-1-yl)acetonitrile]	≥ 10 µM
CCc1cc(C(=O)N2CCC[C@@H](N)C2)cc2nc(-c3cc4ccccc4n3CC)n(C)c12 [Example 75, (R)-(3-Aminopiperidin-1-yl)(7-ethyl-2-(1-ethyl-1H-indol-2-yl)-1-methyl-1H-benzo[d]imidazol-5-yl)methanone]	≥ 10 µM

More lines, now with the values ahead:

IC50	Compound
≥ 10 µM	CCn1c(-c2nc3cc(C(=O)N4CCC[C@@H](N)C4)ccc3n2C)cc2ccccc21 [Example 1a]
≥ 10 µM	CCn1c(-c2nc3cc(C(=O)N4CCC[C@@H](N)C4)ccc3n2C)cc2cccc(OC)c21 [Example 2, (3R)-1-({2-[1-ethyl-7-(methyloxy)-1H-indol-2-yl]-1-methyl-1H-benzimidazol-5-yl}carbonyl)-3-piperidinamine]
≥ 10 µM	Cn1c(-c2cc3ccccc3n2CC2CC2)nc2cc(C(=O)N3CCC[C@@H](N)C3)ccc21 [Example 16, (3R)-1-({2-[1-(Cyclopropylmethyl)-1H-indol-2-yl]-1-methyl-1H-benzimidazol-5-yl}carbonyl)-3-piperidinamine]
≥ 10 µM	CC(C)Cn1c(-c2nc3cc(C(=O)N4CCC[C@@H](N)C4)ccc3n2C)cc2ccccc21 [Example 19, (3R)-1-({1-Methyl-2-[1-(2-methylpropyl)-1H-indol-2-yl]-1H-benzimidazol-5-yl}carbonyl)-3-piperidinamine]
> 79.4 µM	COCCn1c(-c2nc3cc(C(=O)N4CCC[C@@H](N)C4)ccc3n2C)cc2ccccc21 [Example 22, (3R)-1-[(1-methyl-2-{1-[2-(methyloxy)ethyl]-1H-indol-2-yl}-1H-benzimidazol-5-yl)carbonyl]-3-piperidinamine]
> 79.4 µM	Cn1c(-c2cc3ccccc3n2CCO)nc2cc(C(=O)N3CCC[C@@H](N)C3)ccc21 [Example 29, 2-[2-(5-{[(3R)-3-Amino-1-piperidinyl]carbonyl}-1-methyl-1H-benzimidazol-2-yl)-1H-indol-1-yl]ethanol]
≥ 10 µM	CCOc1ccc2cc(-c3nc4cc(C(=O)N5CCC[C@@H](N)C5)ccc4n3C)n(CC)c2c1 [Example 32, (R)-(3-Aminopiperidin-1-yl)(2-(6-ethoxy-1-ethyl-1H-indol-2-yl)-1-methyl-1H-benzo[d]imidazol-5-yl)methanone]
> 79.4 µM	Cn1c(-c2nc3cc(C(=O)N4CCC[C@@H](N)C4)ccc3n2C)cc2ccccc21 [Example 37, (R)-(3-Aminopiperidin-1-yl)(1-methyl-2-(1-methyl-1H-indol-2-yl)-1H-benzo[d]imidazol-5-yl)methanone]

— patent US10407407B2, “Benzoimidazole derivatives as PAD4 inhibitors” (GLAXOSMITHKLINE INTELLECTUAL PROPERTY DEVELOPMENT LIMITED, priority 2015, dated 2019)
